Laboratory results reported in article PMC10224004, “Modulation of Distribution and Diffusion through the Lipophilic Membrane with Cyclodextrins Exemplified by a Model Pyridinecarboxamide Derivative” (Pharmaceutics, 2023).
Like-named read-outs stand apart in the source and are kept apart here.

How the values were obtained:
[1] = Shake-flask distribution in the n-hexane/buffer pH 7.4 system; format: physicochemical
Protocol: Apparent distribution coefficients of the compounds were measured in two systems: 1-octanol/buffer pH 7.4 and n-hexane/buffer pH 7.4 by the shake-flask technique at 310.2 ± 0.5 K in the absence (for IPN, INZ and iNAM) and in the presence of cyclodextrins (HP-β-CD and M-β-CD) in the aqueous phase (for IPN only). The concentrations of cyclodextrins were: 0.0115 M, 0.025 M and 0.035 M. The experiments were carried out according to the literature. In brief, the following experimental procedure was performed. Aqueous buffer pH 7.4 and organic solvent (1-octanol or n-hexane) were mixed during 48 h to obtain mutually saturated phases. The stock solutions containing the drug were prepared in buffer pH 7.4 saturated with the organic solvent. Both aliquots of the aqueous stock solution and organic solvent were placed in screwed glass vials and mixed at 310.2 ± 0.5 K during 3 days. The concentrations of the stock solutions were approximately 6.0 × 10^−3 M for both systems. The volumes of the phases were 3:3 in the 1-octanol/buffer pH 7.4 systems and 6:3 and 10:3 in the n-hexane/buffer pH 7.4 systems, without and with cyclodextrins, respectively. After mixing, the equilibrium was achieved; the vials were maintained at 310.2 ± 0.5 K, and the phases were separated from each other. The drug concentrations were determined using spectrophotometer (Cary-50 Varian, Palo Alto, CA, USA, Software Version 3.00 (339)). The experiments were carried out at least four-fold with an accuracy of 2–4%. The distribution coefficients were calculated using the following equation:(6) DappOrg/buf=C2Org/buf⋅V^buf/Org/C2buf/Org⋅V^Org/buf where DappOrg/buf is the distribution coefficient calculated from the concentrations of the compounds expressed in molar scale, C2Org/buf and C2buf/Org are the molar concentrations of the drug in the mutually saturated organic solvent/buffer and buffer/organic solvent phases, respectively, and V^buf/Org and V^Org/buf are the volumes of the saturated buffer and organic solvent phases, respectively. In addition, the ΔlogD parameters were estimated taking into account the distribution coefficients both in the 1-octanol/buffer pH 7.4 and n-hexane/buffer H 7.4 systems. As Abraham et al. stated, the difference between the distribution parameters in these systems ( ΔlogD ) can be applied to assess the specific interactions including a hydrogen-bonding impact to the drug transport properties and can be calculated as follows:(7) ΔlogD=logDappoct/buf−logDapphex/buf

[2] = Membrane permeability in Franz diffusion cell; format: in vitro ADME; conditions: for Papp at 5 h: pH 7.4, PermeaPad barrier, read-out: permeability coefficient (Papp)
Protocol: Membrane permeability coefficients of the studied drugs were measured in the Franz diffusion cell of vertical type (PermeGear, Inc., Hellertown, PA, USA) with 7 mL/1 mL volumes of the donor and acceptor solutions through the reverse dialysis set up. The PermeaPad barrier (PHABIOC, Fritz-Souchon-Str.27 32339 Espelkamp Germany, www.innome.de) (0.785 cm^2 effective surface area) was mounted between the donor and acceptor chambers of the diffusion cell. The temperature was maintained at 310.2 ± 0.5 K throughout the experiment. Samples of 0.5 mL were withdrawn each 30 min from the acceptor solution and replaced with an equal amount of fresh buffer. Permeability experiments lasted over five hours in all cases. The solutions concentrations were analyzed via spectrophotometer (Spectramax 190; Molecular Devices Corporation, San Jose, CA, USA) in 96-well UV black plates (Costar) at a wavelength of 264 nm and 266 nm for IPN and INZ/iNAM, respectively. The dependences of the amount of the permeated drug over the surface area (dQ/A) on time (t) were plotted and flux (J) across the membrane was calculated by the equation:(11) J=dQ/A×dt The apparent permeability coefficients (Papp) were determined by normalizing the flux measured over the concentration of the drug in the donor compartment (C0) by the equation:(12) Papp=J/C0 Each permeability experiment was carried out in triplicate.
Similarly to the distribution, the permeability coefficients were obtained in the absence (for IPN, and iNAM) and in the presence of cyclodextrins (HP-β-CD and M-β-CD) (for IPN only) in the donor solution. The concentrations of cyclodextrins were 0.0115 M, 0.025 M and 0.035 M. The permeability coefficient for INZ through the PermeaPad barrier was determined in our previous investigation and taken in the present study for the sake of comparison.

CC(C)NNC(=O)c1ccncc1 [IPN, N′-isopropyl isonicotinic hydrazide]
logDapphex/buff ([1]; 310.2 K, cyclodextrin in buffer phase as in the label): −2.907
Dapphex/buff ·10^4 ([1]; 310.2 K, value = D·10^4, cyclodextrin in buffer phase as in the label): 12.400 ± 0.191 ·10^4
Molar concentration C2 buf/hex ∙10^3 (aqueous phase) ([1]; V(hex):V(buf)= 6:3 without and 10:3 with cyclodextrins, molar concentration × 10^3): 6.46 ∙10^3
Molar concentration C2 hex/buf ∙10^5 (organic phase) ([1]; V(hex):V(buf)= 6:3 without and 10:3 with cyclodextrins, molar concentration × 10^5): 1.60 ∙10^5
steady penetrate rate - flux J∙10^4 ([2]; PermeaPad barrier, 310.2 K, pH 7.4, printed value = J × 10^4, cyclodextrin in donor solution as in the label): 1.25 ∙10^4 (μM∙cm‐2∙s‐1)
Papp∙10^5 ([2]; PermeaPad barrier, 310.2 K, pH 7.4, value = Papp × 10^5, cyclodextrin in donor solution as in the label): 2.03±0.05 ∙10^5 (cm∙s‐1)
Papp at 5 h ([2]; 310.2 K, without cyclodextrins): 20.3 ×10⁻⁶ cm/s
Papp at 5 h ([2]; enhancement in the presence of M-β-CD in donor solution (highest value reached)): ≤ 28.7 ×10⁻⁶ cm/s
Papp at 5 h ([2]; slight decrease upon growing HP-β-CD concentration in donor solution (lowest value reached)): ≥ 17.8 ×10⁻⁶ cm/s
